Laboratory results reported in patent publication US20230293524A1, “OTIC FORMULATIONS FOR DRUG-INDUCED OTOTOXICITY” (Spiral Therapeutics Inc, priority 2019, published 2023).
Read-outs that look alike come from different tables or passages of the source.

Tests used:
[1] = tested on: outer hair cells (OHCs) and inner hair cells (IHCs); assay: Cochlear explant model: hair cell protection against cisplatin; format: cell-based, Sprague-Dawley rats; details: for EC100: Rattus norvegicus, read-out: Ex-vivo Efficacy Conc. for complete protection of hair cells (uM); for protection of hair cells against cisplatin: 1.5 hour pretreatment followed by co-treatment at different concentrations with 10 μM cisplatin
Description: (§1) For hair cell and spiral ganglion assessment, postnatal Sprague-Dawley rats (P2-P4) of both sexes are anesthetized with isoflurane and decapitated. Temporal bones are removed and transferred to a cell culture dish with ice-cold Ca^2+/Mg^2+-containing phosphate-buffered saline (PBS; Invitrogen) or cold HBSS medium enriched with glucose. Under microscopic visualization, the cochlear capsules are carefully removed from the temporal bone using forceps and transferred to a new cell culture dish containing ice-cold PBS. The cochleae are then dissected from the cochlear capsule using fine forceps. The stria vascularis is removed from the cochlear tissue and discarded. Dissected cochlear epithelia are transferred to permeable membrane inserts (Millicell organotypic culture plate inserts, Millipore) which are placed into 1 mL of culture media (Dulbecco's modified Eagle's medium (high glucose, Glutamax, 25 mM HEPES) with 10% fetal bovine serum, 1% N2 supplement and 10 units/ml penicillin) in a 6-well plate. Up to 4 cochleae are placed onto each membrane. Explants are placed in a humidified chamber with 5% CO2 at 37° C. for a minimum of 18 hours prior to treatment. Cultures are then pre-treated with test compounds and returned to the incubator for a period of 10 minutes to 48 hours.
(§2) Following the incubation period, cochlear samples are fixed in 4% paraformaldehyde for a minimum of 30 minutes after treatment then permeabilized in 0.5% Triton in PBS (PBST) for 1 hour, followed by overnight incubation at 4° C. in primary antibodies in 10% goat or donkey serum (Sigma). Samples are then rinsed in PBST 2 times for 10 minutes each then incubated in alexa-488 conjugated secondary antibodies for 2 hours at room temperature or overnight at 4° C. in 10% goat or donkey serum (Sigma). Samples are then rinsed 2 times in PBS then incubated in DAPI (1:3000) in PBS for 5 minutes prior to mounting on slides. To evaluate the otoprotective efficacy of the compounds, cochlear samples are immunostained using combination of antibodies generated against markers specific for hair cells (Myosin V1, Myosin VIIA, Parvalbumin, etc.), SGNs (TUJ1, Neurofilament, etc.), f-actin, cell death, cell stress, etc. as well as a nuclear stain to identify cell nuclei.
(§3) Immunostained samples are mounted on glass slides and imaged with an LSM880 laser scanning confocal microscope (Zeiss) or an Operetta high-content imager (Perkin Elmer). The entire explant is imaged for all antibody and nuclear labeling in a 3-dimensional X-Y-Z plane in which the Z-plane consists of a stack imaged at intervals of 0.5-5 μm. The total length of the organ of Corti in each explant is then determined and is divided into 4 equal length regions. Basal, middle and apical hair cells or SGNS are counted at the regions approximately 25%, 50% or 75% of the total cochlear length from the base, respectively. Hair cell survival is determined by counting the number of inner and outer hair cells at these three different regions (base, middle and apex) in each cochlear explant and determining the number of missing/dead hair cells per cochlear region. Hair cell counts are obtained by placing a 200 μm length scale bar parallel to the rows of hair cells at each region and manually counting the total number of outer hair cells (OHCs) and inner hair cells (IHCs) within the 200 μm. Similarly, to evaluate the health and survival of SGNs, the density of SGN fibers or soma is also determined per region by manual counting for same region selected for counting hair cells. Nuclear staining is analyzed to confirm the presence or absence of cell nuclei and to evaluate nuclear health. Image analysis and quantification is performed using Zeiss Zen Blue software, or Perkin Elmer Columbus software.
(§4) Neonatal (P2-P4) Sprague-Dawley rats were used for the experiments described here. Animals were euthanized following anesthesia using isoflurane. Rat cochleae were then dissected in cold HBSS medium enriched with glucose. […]

[2] = tested on: spiral ganglion neurons (SGNs); assay: Cochlear explant model: spiral ganglion neuron protection against cisplatin; format: cell-based, Sprague-Dawley rats; details: 1.5 hour pretreatment followed by co-treatment at different concentrations with 10 μM cisplatin
Description: as §1, §2, §3, §4

[3] = Cisplatin binding, % bound
[4] = Cisplatin reaction kinetics by HPLC; details: 50 μM cisplatin + 50 μM of compound (API) in PBS, pH 7.4, 37° C.
Protocol: Reaction kinetics between Cisplatin and the compound of interest (nucleophile) were monitored by high performance liquid chromatography. Isocratic separation was achieved using a Waters Spherisorb C8 column (4×250 mm, 5 μm, 80 Å). The flow rate was set to 1.00 mL/min. The mobile phase consisted of 5 mM Sodium Octanesulfonate+5 mM Tetrabutyl Ammonium Hydrogen Sulfate+20 mM Potassium Dihydrogen Phosphate adjusted to pH 5.9. Detection was performed at a wavelength of 210 nm.
Reactions were conducted at equimolar concentrations in buffered aqueous media and held at 37° C. Rate constants (k) were determined by monitoring the disappearance of Cisplatin as a function of time.

[5] = Pharmacokinetic study after intratympanic administration; format: in vivo, rats
Protocol: Female rats (Charles River) weighing 200-300 g of approximately 12-16 weeks of age served as subjects (N=4 per group). Prior to any procedures, animals were anesthetized using a combination of xylazine (10 mg/kg), ketamine (50 mg/kg), and acepromazine (1 mg/kg) for up to an hour via the intraperitoneal route. If needed, an intraoperative booster was administered intraperitoneal representing a one-tenth of the original dose.
Intratympanic injection—Each animal was positioned so that the head was tilted at an angle to favor injection towards the round window niche. […] Formulations were delivered using a perfusion pump at the rate of 2 μL/sec. Contact with the round window membrane was maintained for 30 minutes by placing the animal in a recumbent position. During the procedure and until recovery, animals were placed on a temperature controlled (40° C.) heating pad until consciousness was regained at which time they were returned to the vivarium.
Perilymph sampling procedure—The skin behind the ear of anesthetized rats was shaved and disinfected with povidone-iodine. An incision was then made behind the ear, and muscles were carefully retracted from over the bulla. A hole was drilled through the bulla using a dental burr so that the middle ear was exposed and accessed. The cochlea and the round window membrane were visualized under a stereo surgical microscope. The basal turn of bulla was cleaned by using small cotton ball. A unique microhole was hand drilled through the bony shell of the cochlea (cochlear capsule) adjacent to the round window. Perilymph (about 2 μL) was then collected using a microcapillary inserted into the cochlear scala tympani. Perilymph samples were added to a vial containing 18 μL of acetonitrile/water, stored at −80° C. until analysis.
Cochlear epithelium sampling procedure—Under a dissection scope, the bulla was opened, and the cochlea was exposed by removing all surrounding muscles, blood vessels and bone tissues. Holding the bulla, the cochlear wall bony structure was removed working from the base to the apex of the cochlea, exposing the organ of Corti. The exposed cochlear epithelium was gently dabbed with cotton swab to remove excess of liquid from tissue, carefully transferred to labelled tube. Each 2-mL plastic tube that contained acid washed 2.8 mm stainless steel beads was pre-weighed. The tubes were reweighed after adding cochlea epithelium and weights were recorded. All cochlea epithelium samples were placed in dry ice immediately after collection and stored at −80° C. prior to analysis.
Plasma sampling procedure—Blood samples were collected by cardiac puncture into labeled micro-tubes, containing lithium heparin as anticoagulant. Plasma were immediately harvested from the blood by centrifugation and collection for supernatants. All plasma samples were stored at −80° C. prior to analysis.
Samples were extracted by protein precipitation, then vortexed and centrifuged. The supernatant was collected and diluted with two folds of water. A high-performance liquid chromatography system (Agilent 1200 series) with Waters Cortecs C18 Plus column (50*4.6 mm, 2.7 μm) were used. The flow rate was set at 0.700 mL/min. A gradient method with an analytical run time of 5 minutes was used. Mobile phase A consisted of 0.01% ammonium formate, 0.03% formic acid in water. Mobile phase B consisted of 0.01% ammonium formate, 0.03% formic acid in acetonitrile: methanol (70:30, v/v). The gradient began with 30% B, stepped to 70% B at 2.75 minutes and held for 1 minute and then stepped back to 30% B to re-equilibrate the column.
Ionizations and detection of analyte and internal standard were performed on a triple quadruple mass spectrometer, API 5500 Q-Trap equipped with Turbo IonSpray@, from SCIEX (Toronto, Canada). Electro spray ionization (ESI) mass spectra was operated in the positive ion mode. Carbutamide was used as the internal standard (IS). […]

[6] = Rat cisplatin IP PK study, total platinum by ICP-MS; format: in vivo; details: for Cmax: read-out: Cmax concentrations in perilymph and cochlear tissues
Protocol: Total platinum level in samples were analyzed by a qualified inductively coupled plasma mass spectrometric detection (ICP-MS) developed in QPS (Netherlands Lab). Ruthenium were used as internal standard. A flow injection analysis (FIA) method was used to using HPLC pump to introduce samples and internal standard into the systems but without HPLC column. The ICP-quadrupole-MS of Perkin Elmer Sciex Elan 6100 ICP-MS System equipped with a peristaltic pump, nebulizer, spray chamber, and quartz torch were used in platinum analyses.
Sample transport from the autosampler to the nebulizer was performed using a peristaltic pump. The instrument was cooled by using argon gas of 99.999% purity. Data were acquired and processed using the Analyst 1.6. The instrument settings of the ICP-MS had the following operating parameters: ICP radio frequency (RF) power, 1500 W; RF matching, 1.80 V; sampling depth, 8.0 mm; carrier gas, 0.90 L/min; makeup gas, 0.21 L/min; nebulizer pump, 0.10 rps; He gas, 4.5 mL/min; extract 1, 0.0 V; extract 2, −120.0 V; cell entrance, −30 V; cell exit, −30 V; QP bias, −16.0 V; Octp bias, −20.0 V.
The mass to charge ratio is determined by the detector. […] Electronic signals were compared to the standardized curve generated from ultra-high purity platinum samples and solvents. Accounting for dilutions, comparison of the sample signal to the standardized curve will allow for the determination of the original total platinum concentration.
Intraperitoneal injection—The lower right quadrant of the abdomen was shaved and disinfected with alcohol and then povidone iodine. Animals were placed in a supine position and the hind legs were lifted at a 40-degree angle in order to move the abdominal organs towards the diaphragm. A 1″ 23G needle or larger was inserted into the abdominal cavity, directed towards the animal's head, at a 15-20-degree angle and inserted approximately 5 mm. […] After removal of the syringe from the peritoneal cavity, triple antibiotic was placed on the injection site to help prevent infection. During the procedure and until recovery, animals were placed on a temperature controlled (40° C.) heating pad until consciousness was regained at which time they were returned to the vivarium.
Protocol: 3 animals per group at time points. Group A: 30 min, 1 hr, 2 hr, 6 hr, 1 day, 3 day, 7 day, 28 day. Group B: 30 min, 1 hr, 2 hr, 6 hr, 1 day, 3 day. Bioanalysis: Plasma, Perilymph, Cochlear epithelium, CSF. Bioanalytical Method: Total Platinum by ICP-MS.

[7] = intraperitoneal (IP) administration

Cisplatin Binding % bound (in 30 min) at 1:10 ratio [3] [%]	SMILES	EC100 [1] [µM]	protection of hair cells against cisplatin [1]	protection of spiral ganglion neurons against cisplatin [2]	k [4] [M⁻¹ s⁻¹]	other results
	CSC[C@H]1O[C@@H](n2cnc3c(N)ncnc32)[C@H](O)[C@@H]1O [5-Deoxy-5-methylthioadenosine]					Ex-vivo Efficacy Conc. for complete protection of hair cells (uM) ([1]; ex vivo cochlear explants, cisplatin): No protection
	CC(=O)c1c[nH]c(=S)n(-c2ccc(C)cc2)c1=O [5-acetyl-3-(p-tolyl)-2-thiouracil]	500				potency on HC protection ([1]; ex-vivo cochlear explants, comparison of thiouracils): lower potency
60	Sc1ncnc2nc[nH]c12 [6-mercaptopurine]	50 to 100	complete protection	near complete protection		
	COc1cc(=O)[nH]c(=S)[nH]1 [6-methoxy-2-thiouracil]	50 to 100				
50	Nc1nc2c(ncn2[C@H]2C[C@H](O)[C@@H](CO)O2)c(=S)[nH]1 [6-thio-2′-deoxy guanosine]	100	complete protection	near complete protection		
80	Nc1nc2nc[nH]c2c(=S)[nH]1 [6-thioguanine]	50 to 100	complete protection	near complete protection		
	Nc1nc2c(ncn2[C@@H]2O[C@H](CO)[C@@H](O)[C@H]2O)c(=S)[nH]1 [6-thioguanosine]	50 to 100	complete protection	near complete protection		
	O=c1cc[nH]c(=S)[nH]1 [Compound 2-thiouracil, 2-thiouracil]	50 to 100			0.15	
40	CSCC[C@@H](N)C(=O)O [D-methionine, reference compound]	10000			0.07	In vivo PK in Cochlear Epithelium (24 h after dosing) [5]: ~200 ng/gm CE
	O=S(=O)(O)CCS [MESNA, reference compound]				0.05	
95	CCCc1cc(=O)[nH]c(=S)[nH]1 [OMY-141, 6-propyl-2-thiouracil]	50 to 100	complete protection		10.27	In vivo PK in Cochlear Epithelium (24 h after dosing) [5]: ~300 ng/gm CE; plasma exposure after IT injection ([5]; single IT injection): some plasma exposure; perilymph and cochlear epithelium exposure after IT injection ([5]; single IT injection, MCT and/or poloxamer formulation): good perilymph and cochlear epithelium exposure
	N.N.[Cl][Pt][Cl] [cisplatin]					Cmax concentrations in perilymph and cochlear tissues ([6]; dosed at 10 mg/kg IP): 0.7 to 0.75 µg/mL; Cmax ([6]; dosed at 10 mg/kg IP): 2.3 to 2.5 µM; Cmax concentrations in perilymph and cochlear tissues ([6]; dosed at 12 mg/kg IP): 0.7 to 0.9 µg/mL; Cmax ([6]; dosed at 12 mg/kg IP): 2.3 to 3 µM; time of peak cisplatin levels in cochlear tissues [6, 7]: 6 h; time of peak cisplatin levels in perilymph [6, 7]: ≤ 30 min
